Laboratory results as given in ChEMBL document CHEMBL3734692, “Design and synthesis of 2-oxindole based multi-targeted inhibitors of PDK1/Akt signaling pathway for the treatment of glioblastoma multiforme” (Eur J Med Chem, 2015).
The source made the active and inactive calls. No cut-off for these calls is given here.

Key:
ANGM-CSS [1] = experiment: Induction of human GSC differentiation derived from ANGM-CSS cells assessed as down regulation of CD133 mRNA expression at 1 uM after 7 days by RT-PCR analysis; type: functional, cell-based
[2] = target: Cyclin-dependent kinase 1/cyclin B1 (Homo sapiens) (UniProt P06493+P14635); experiment: Inhibition of CDK1/cyclin B (unknown origin) at 1 uM by selectscreen kinase profiling assay in presence of ATP; type: protein-complex assay
[3] = target: Casein kinase II subunit alpha' (Homo sapiens) (UniProt P19784); experiment: Inhibition of CK2alpha2 (unknown origin) at 1 uM by selectscreen kinase profiling assay in presence of ATP
[4] = target: Ribosomal protein S6 kinase beta-1 (Homo sapiens) (UniProt P23443); experiment: Inhibition of RPS6KB1 (unknown origin) at 1 uM by selectscreen kinase profiling assay in presence of ATP
[5] = Cell cycle arrest in human GSC derived from ANGM-CSS cells assessed as accumulation at G2/M phase at 1 uM after 7 days by based fluorescent reagent based cell analysis (reference value: 23.5%); type: functional
[6] = target: Phosphatidylinositol 4,5-bisphosphate 3-kinase catalytic subunit gamma isoform (Homo sapiens) (UniProt P48736); experiment: Inhibition of PIK3Cgamma (unknown origin) at 1 uM by selectscreen kinase profiling assay in presence of ATP
[7] = Cell cycle arrest in human GSC derived from ANGM-CSS cells assessed as accumulation at G0/G1 phase at 1 uM after 7 days by based fluorescent reagent based cell analysis (reference value: 71.4%); type: functional
[8] = target: Serine/threonine-protein kinase MARK1 (Homo sapiens) (UniProt Q9P0L2); experiment: Inhibition of MARK1 (unknown origin) at 1 uM by selectscreen kinase profiling assay in presence of ATP
[9] = target: Mitogen-activated protein kinase 14 (Homo sapiens) (UniProt Q16539); experiment: Inhibition of p38 alpha (unknown origin) at 1 uM by selectscreen kinase profiling assay in presence of ATP
Mitogen-activated protein kinase 14 (Homo sapiens), sequence (Q16539 whole entry): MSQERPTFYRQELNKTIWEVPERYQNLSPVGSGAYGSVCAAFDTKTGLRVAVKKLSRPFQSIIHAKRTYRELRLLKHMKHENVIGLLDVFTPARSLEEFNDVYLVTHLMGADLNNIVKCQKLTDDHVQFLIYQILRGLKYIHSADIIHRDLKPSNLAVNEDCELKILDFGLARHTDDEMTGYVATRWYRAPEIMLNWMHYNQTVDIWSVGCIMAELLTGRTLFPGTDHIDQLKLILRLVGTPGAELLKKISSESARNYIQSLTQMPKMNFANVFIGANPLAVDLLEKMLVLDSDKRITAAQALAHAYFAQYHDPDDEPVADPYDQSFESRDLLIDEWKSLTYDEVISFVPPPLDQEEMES

[10] = target: Proto-oncogene tyrosine-protein kinase Src (Homo sapiens) (UniProt P12931); experiment: Inhibition of SRC (unknown origin) at 1 uM by selectscreen kinase profiling assay in presence of ATP
ANGM-CSS [11] = experiment: Antiproliferative activity against human ANGM-CSS cells assessed as inhibition of cell growth after 72 to 144 hrs by WST1 assay; type: functional, cell-based
[12] = target: Mitogen-activated protein kinase 3 (Homo sapiens) (UniProt P27361); experiment: Inhibition of ERK1 (unknown origin) at 1 uM by selectscreen kinase profiling assay in presence of ATP
[13] = target: Cyclin-dependent kinase 5/CDK5 activator 1 (Homo sapiens) (UniProt Q00535+Q15078); experiment: Inhibition of CDK5/p35 (unknown origin) at 1 uM by selectscreen kinase profiling assay in presence of ATP; type: protein-complex assay
[14] = target: Rho-associated protein kinase 1 (Homo sapiens) (UniProt Q13464); experiment: Inhibition of ROCK1 (unknown origin) at 1 uM by selectscreen kinase profiling assay in presence of ATP
Rho-associated protein kinase 1 (Homo sapiens), sequence (Q13464 2-1354 limits assumed): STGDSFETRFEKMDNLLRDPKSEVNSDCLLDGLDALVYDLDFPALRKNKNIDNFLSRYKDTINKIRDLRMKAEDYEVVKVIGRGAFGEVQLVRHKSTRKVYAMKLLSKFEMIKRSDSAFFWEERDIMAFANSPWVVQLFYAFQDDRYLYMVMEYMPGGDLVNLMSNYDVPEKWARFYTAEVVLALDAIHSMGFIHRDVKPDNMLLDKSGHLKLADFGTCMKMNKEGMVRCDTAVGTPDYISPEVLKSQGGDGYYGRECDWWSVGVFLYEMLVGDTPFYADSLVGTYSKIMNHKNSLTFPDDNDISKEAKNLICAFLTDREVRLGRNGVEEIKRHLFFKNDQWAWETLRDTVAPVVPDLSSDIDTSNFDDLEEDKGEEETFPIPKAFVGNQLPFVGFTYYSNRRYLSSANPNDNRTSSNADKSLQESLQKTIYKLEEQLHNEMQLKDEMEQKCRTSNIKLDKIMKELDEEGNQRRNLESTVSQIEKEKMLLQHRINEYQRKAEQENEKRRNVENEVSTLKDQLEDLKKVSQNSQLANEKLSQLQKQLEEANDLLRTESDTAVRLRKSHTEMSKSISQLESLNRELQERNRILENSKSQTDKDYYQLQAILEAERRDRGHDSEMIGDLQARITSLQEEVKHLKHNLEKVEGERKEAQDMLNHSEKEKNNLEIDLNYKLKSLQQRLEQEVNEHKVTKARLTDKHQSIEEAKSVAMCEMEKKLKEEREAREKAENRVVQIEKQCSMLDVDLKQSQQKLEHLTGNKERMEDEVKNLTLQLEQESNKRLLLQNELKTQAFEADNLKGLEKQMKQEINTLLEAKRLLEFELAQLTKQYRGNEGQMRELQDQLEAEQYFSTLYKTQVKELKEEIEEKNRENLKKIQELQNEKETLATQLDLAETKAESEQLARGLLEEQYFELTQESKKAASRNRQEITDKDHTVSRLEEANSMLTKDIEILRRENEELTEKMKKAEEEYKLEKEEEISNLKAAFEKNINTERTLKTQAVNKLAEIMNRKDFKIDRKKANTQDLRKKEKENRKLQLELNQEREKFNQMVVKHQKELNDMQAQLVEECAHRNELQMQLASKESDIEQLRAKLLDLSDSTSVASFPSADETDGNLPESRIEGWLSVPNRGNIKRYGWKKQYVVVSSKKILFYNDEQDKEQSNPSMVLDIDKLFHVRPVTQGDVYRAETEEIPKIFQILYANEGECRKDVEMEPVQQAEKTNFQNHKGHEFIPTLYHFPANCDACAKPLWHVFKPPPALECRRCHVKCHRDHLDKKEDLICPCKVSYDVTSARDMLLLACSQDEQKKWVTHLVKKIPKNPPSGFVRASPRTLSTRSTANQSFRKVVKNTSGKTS

[15] = target: T1, AMP-activated protein kinase, AMPK (Homo sapiens) (UniProt P54646+O43741+P54619+Q9UGJ0+Q9Y478+Q13131+Q9UGI9); experiment: Inhibition of AMPK A1/B1/G1 (unknown origin) at 1 uM by selectscreen kinase profiling assay in presence of ATP; type: protein-complex assay
[16] = target: Dual specificity mitogen-activated protein kinase kinase 1 (Homo sapiens) (UniProt Q02750); experiment: Inhibition of MEK1 (unknown origin) at 1 uM by selectscreen kinase profiling assay in presence of ATP
[17] = target: Ribosomal protein S6 kinase alpha-1 (Homo sapiens) (UniProt Q15418); experiment: Inhibition of RSK1 (unknown origin) at 1 uM by selectscreen kinase profiling assay in presence of ATP
Ribosomal protein S6 kinase alpha-1 (Homo sapiens), sequence (Q15418 whole entry): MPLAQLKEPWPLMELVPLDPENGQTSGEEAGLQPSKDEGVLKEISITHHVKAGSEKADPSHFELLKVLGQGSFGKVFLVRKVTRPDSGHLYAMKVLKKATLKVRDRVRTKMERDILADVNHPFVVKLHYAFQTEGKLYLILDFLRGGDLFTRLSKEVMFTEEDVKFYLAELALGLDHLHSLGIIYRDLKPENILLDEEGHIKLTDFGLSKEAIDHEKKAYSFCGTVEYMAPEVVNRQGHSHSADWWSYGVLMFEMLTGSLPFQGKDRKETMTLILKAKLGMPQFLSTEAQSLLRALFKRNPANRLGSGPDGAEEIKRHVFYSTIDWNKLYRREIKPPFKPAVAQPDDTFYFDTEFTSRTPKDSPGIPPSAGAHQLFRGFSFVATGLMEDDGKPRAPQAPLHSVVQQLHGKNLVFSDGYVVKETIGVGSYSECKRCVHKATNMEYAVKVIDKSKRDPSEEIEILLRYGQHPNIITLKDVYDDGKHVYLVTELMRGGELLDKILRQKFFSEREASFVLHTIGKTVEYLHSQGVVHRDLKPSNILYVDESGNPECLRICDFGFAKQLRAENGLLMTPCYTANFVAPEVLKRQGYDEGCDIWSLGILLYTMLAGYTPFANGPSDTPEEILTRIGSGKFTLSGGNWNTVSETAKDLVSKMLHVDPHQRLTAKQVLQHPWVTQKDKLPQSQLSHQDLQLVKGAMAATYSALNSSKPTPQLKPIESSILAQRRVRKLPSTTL

[18] = target: G protein-coupled receptor kinase 5 (Homo sapiens) (UniProt P34947); experiment: Inhibition of GRK5 (unknown origin) at 1 uM by selectscreen kinase profiling assay in presence of ATP
G protein-coupled receptor kinase 5 (Homo sapiens), sequence (P34947 whole entry, looked up): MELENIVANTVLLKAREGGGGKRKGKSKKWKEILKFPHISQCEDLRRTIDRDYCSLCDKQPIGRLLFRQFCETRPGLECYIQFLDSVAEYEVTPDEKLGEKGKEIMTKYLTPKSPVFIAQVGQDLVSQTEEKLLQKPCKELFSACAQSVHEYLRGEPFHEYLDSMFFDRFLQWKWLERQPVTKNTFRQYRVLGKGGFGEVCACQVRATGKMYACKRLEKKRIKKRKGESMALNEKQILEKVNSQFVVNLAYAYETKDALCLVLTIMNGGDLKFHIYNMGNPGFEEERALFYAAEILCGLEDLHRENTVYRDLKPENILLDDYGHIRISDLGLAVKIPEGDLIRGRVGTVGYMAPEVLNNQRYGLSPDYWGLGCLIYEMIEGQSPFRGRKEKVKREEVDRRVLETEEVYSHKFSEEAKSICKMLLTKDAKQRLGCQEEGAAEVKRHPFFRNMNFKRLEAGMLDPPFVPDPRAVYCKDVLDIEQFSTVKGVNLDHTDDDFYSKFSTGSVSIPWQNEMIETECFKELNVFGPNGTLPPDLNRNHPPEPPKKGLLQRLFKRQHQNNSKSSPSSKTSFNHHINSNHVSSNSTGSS

[19] = target: Glycogen synthase kinase-3 alpha (Homo sapiens, UniProt P49840); experiment: Inhibition of GSK3alpha (unknown origin) at 1 uM by selectscreen kinase profiling assay in presence of ATP
[20] = Induction of apoptosis in human GSC derived from ANGM-CSS cells assessed as late apoptotic cells at 1 uM after 7 days by annexin V-FITC/7-AAD dual staining based cell analysis (reference value: 2.51%); type: functional
ANGM-CSS [21] = experiment: Induction of human GSC differentiation derived from ANGM-CSS cells assessed as down regulation of nestin mRNA expression at 1 uM after 7 days by RT-PCR analysis; type: functional, cell-based
[22] = target: Tyrosine-protein kinase ABL1 (Homo sapiens) (UniProt P00519); experiment: Inhibition of ABL1 (unknown origin) at 1 uM by selectscreen kinase profiling assay in presence of ATP
[23] = target: Serine/threonine-protein kinase Chk1 (Homo sapiens) (UniProt O14757); experiment: Inhibition of CHEK1 (unknown origin) at 1 uM by selectscreen kinase profiling assay in presence of ATP
[24] = target: Rho-associated protein kinase 2 (Homo sapiens) (UniProt O75116); experiment: Inhibition of ROCK2 (unknown origin) at 1 uM by selectscreen kinase profiling assay in presence of ATP
Rho-associated protein kinase 2 (Homo sapiens), sequence (O75116 whole entry, looked up): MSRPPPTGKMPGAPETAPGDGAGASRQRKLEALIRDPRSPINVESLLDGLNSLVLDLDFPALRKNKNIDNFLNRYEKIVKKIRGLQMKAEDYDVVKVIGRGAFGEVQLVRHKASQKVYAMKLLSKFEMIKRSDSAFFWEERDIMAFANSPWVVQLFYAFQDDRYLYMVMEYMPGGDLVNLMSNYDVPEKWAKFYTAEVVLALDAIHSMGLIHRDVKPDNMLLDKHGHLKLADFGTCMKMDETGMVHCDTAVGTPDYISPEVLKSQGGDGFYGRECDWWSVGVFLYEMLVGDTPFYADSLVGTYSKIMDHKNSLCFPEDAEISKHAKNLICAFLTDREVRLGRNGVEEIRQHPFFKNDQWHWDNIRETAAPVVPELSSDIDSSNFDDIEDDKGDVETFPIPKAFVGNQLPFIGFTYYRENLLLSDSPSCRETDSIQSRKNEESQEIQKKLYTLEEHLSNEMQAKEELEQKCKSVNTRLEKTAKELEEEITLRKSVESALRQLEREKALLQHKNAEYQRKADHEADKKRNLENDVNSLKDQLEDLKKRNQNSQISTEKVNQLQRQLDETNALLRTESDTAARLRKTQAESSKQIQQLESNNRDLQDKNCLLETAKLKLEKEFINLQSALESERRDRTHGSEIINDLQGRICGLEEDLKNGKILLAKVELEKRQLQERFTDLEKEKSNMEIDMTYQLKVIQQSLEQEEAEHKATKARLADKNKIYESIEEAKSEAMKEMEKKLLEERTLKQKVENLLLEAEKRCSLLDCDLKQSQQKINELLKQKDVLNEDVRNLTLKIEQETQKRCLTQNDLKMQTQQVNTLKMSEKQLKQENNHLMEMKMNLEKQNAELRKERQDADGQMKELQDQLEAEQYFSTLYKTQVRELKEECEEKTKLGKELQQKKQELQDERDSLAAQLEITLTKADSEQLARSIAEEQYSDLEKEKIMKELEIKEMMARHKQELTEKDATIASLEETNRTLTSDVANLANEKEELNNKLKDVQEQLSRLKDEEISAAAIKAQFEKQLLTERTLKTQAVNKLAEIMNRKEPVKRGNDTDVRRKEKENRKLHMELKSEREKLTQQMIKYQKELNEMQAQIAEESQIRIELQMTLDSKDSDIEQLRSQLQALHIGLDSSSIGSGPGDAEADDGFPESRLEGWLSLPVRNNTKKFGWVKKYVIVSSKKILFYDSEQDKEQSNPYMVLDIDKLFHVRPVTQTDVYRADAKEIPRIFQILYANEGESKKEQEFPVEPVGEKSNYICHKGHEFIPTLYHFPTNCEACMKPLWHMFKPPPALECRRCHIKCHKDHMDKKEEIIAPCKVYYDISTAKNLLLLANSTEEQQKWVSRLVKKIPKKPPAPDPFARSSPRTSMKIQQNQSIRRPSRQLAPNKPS

[25] = Antiproliferative activity against human U118MG cells assessed as inhibition of cell growth after 72 hrs by WST1 assay; type: functional; settings: U-118-MG
[26] = target: Tyrosine-protein kinase Lck (Homo sapiens) (UniProt P06239); experiment: Inhibition of LCK (unknown origin) at 1 uM by selectscreen kinase profiling assay in presence of ATP
Tyrosine-protein kinase Lck (Homo sapiens), sequence (P06239 2-509 limits assumed): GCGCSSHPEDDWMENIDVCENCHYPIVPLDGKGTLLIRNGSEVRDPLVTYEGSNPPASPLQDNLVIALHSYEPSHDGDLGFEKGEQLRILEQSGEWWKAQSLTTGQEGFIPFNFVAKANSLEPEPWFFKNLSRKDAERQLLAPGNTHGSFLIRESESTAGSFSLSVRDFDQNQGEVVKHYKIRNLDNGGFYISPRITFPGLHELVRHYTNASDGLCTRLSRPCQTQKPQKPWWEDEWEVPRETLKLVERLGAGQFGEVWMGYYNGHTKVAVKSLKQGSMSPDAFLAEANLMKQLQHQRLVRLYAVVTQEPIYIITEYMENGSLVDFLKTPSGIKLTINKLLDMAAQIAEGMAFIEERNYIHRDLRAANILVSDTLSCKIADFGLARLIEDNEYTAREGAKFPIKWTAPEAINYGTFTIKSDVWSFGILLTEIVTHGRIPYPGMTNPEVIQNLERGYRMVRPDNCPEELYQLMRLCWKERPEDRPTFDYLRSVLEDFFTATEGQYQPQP

[27] = target: T1, AMP-activated protein kinase, AMPK (Homo sapiens); experiment: Inhibition of AMPK A2/B1/G1 (unknown origin) at 1 uM by selectscreen kinase profiling assay in presence of ATP; type: protein-complex assay
[28] = target: T2, 3-phosphoinositide-dependent protein kinase 1 (Homo sapiens, UniProt O15530); experiment: Inhibition of PDK1 (unknown origin) in presence of 25 uM ATP incubated for 1 hr by Z'Lyte assay
T2 sequence (O15530 whole entry): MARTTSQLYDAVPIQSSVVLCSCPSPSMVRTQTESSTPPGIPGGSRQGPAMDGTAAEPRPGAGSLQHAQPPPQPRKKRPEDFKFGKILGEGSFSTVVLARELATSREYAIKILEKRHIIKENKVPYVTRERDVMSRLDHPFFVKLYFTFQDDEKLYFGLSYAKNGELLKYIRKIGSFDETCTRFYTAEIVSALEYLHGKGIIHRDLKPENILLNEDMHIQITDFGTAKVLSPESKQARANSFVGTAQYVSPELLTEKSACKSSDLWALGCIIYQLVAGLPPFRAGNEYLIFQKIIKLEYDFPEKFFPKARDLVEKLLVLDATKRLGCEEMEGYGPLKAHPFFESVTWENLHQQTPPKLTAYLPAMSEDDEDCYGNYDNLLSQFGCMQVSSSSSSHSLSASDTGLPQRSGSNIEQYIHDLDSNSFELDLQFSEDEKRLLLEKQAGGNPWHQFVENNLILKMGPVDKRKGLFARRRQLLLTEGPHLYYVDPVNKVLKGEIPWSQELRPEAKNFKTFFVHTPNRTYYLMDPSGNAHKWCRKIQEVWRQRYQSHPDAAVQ

Q: With COc1cc2c(cc1OC)CN(CC(=O)Nc1ccc3c(c1)/C(=C/c1cnc[nH]1)C(=O)N3)CC2 as the molecule, how does the Activity (ANGM-CSS [1]) read?
A: Active

Q: And the inhibition [2]?
A: 18%

Q: What about the inhibition [3] of the same molecule?
A: 11%

Q: And the inhibition [4]?
A: 18%

Q: And the Activity [5]?
A: 27%

Q: And the inhibition [6]?
A: 5%

Q: What about the Activity [7] of the same molecule?
A: 69%

Q: What about the inhibition [8] of the same molecule?
A: 27%

Q: And the inhibition [9]?
A: 4%

Q: What about the inhibition [10] of the same molecule?
A: 27%

Q: And the “growth inhibition (GI)” value (ANGM-CSS [11])?
A: Dose-dependent effect

Q: And the inhibition [12]?
A: 37%

Q: And the inhibition [13]?
A: 40%

Q: And the inhibition [14]?
A: 8%

Q: And the inhibition [15]?
A: 42%

Q: And the inhibition [16]?
A: 37%

Q: What about the inhibition [17] of the same molecule?
A: 44%

Q: What about the inhibition [18] of the same molecule?
A: 10%

Q: And the inhibition [19]?
A: 59%

Q: And the Activity [20]?
A: 4.93%

Q: And the Activity (ANGM-CSS [21])?
A: Active

Q: And the inhibition [22]?
A: 55%

Q: And the inhibition [23]?
A: 61%

Q: What about the inhibition [24] of the same molecule?
A: -5%

Q: And the GI50 [25]?
A: 14.6 µM

Q: What about the inhibition [26] of the same molecule?
A: 26%

Q: And the inhibition [27]?
A: 30%

Q: What about the IC50 [28] of the same molecule?
A: 0.998 µM
